The values below come from PMC4402707 (Neurotherapeutics : the journal of the American Society for …, 2009).

Like-named read-outs stand apart in the source and are kept apart here. Where a SMILES comes first, the peptide text is derived from it. [ ]: non-standard residue; d: D form. The star is where a group is joined. Fmoc = O=C(OCC1c2ccccc2-c2ccccc21)*; Cha = N[C@@H](CC1CCCCC1)C(=O)O; AMC = Cc1cc(=O)oc2cc(N*)ccc12 A value given as a limit tells only on which side of the number the result lay.

The test system of assay [1] is CF-1 mice (seizures induced by 6 Hz corneal stimulation). The conditions noted are these: cited from earlier work; for ED50, 6 Hz model, 44 mA (95% confidence interval) / ED50, 6 Hz model, 32 mA (95% confidence interval): ref Barton et al., 2001[19].
Assay [2] concerns non-galanin receptors (5-HT-1A and 1B, D2 dopamine, ghrelin, melanocortin, NPY, μ-opioid receptors). The settings on record: at 10 μM, NPY (galnon only), μ-opioid (galmic only); cited from earlier work.
Assay [3] has as its system galanin receptors GalR1 and GalR2. The conditions noted are these: cited from earlier work; for Fold difference in affinity for GalR1 and GalR2: receptor subtype specificity.
Assay [4] relates to CF-1 mice (seizures induced by 6 Hz corneal stimulation). The assay can be described thus: 6 Hz psychomotor seizure test. The format is in vivo, mouse. The conditions noted are these: 4 mg/kg i.p.
For assay [5], the system named is corneal kindled mouse (fully expressed secondarily generalized seizure). The settings on record: i.p.; ref Rowley et al., manuscript in preparation; cited from earlier work.

Take GWTLNSAGYLLGPHAV-NH2 [Gal(1-16)]: in assay [1] (4 mg/kg i.p., 32 mA, ref Bulaj et al, 2008.[17]), the “Activity in 6 Hz 32 mA model (in words)” value was “inactive”.
In the case of `COC[C@@H](NC(C)=O)C(=O)NCc1ccccc1` [Lacosamide], in assay [1] (read-out: ED50, 6 Hz model, 32 mA (95% confidence interval), i.p., 32 mA, ref Stöhr et al., 2007[44]), the median effective dose (ED50) – broadly, the dose at which the effect has come halfway, by size or by number of responders – was 9.9 mg/kg.
For `COC(=O)[C@H](CCCCN)NC(=O)[C@]1(C)NC(=O)c2nc(oc2C)[C@](C)(C(=O)NC2c3ccccc3-c3ccccc32)NC(=O)c2nc(oc2C)[C@](C)(C(=O)NCC2CCCCC2)NC(=O)c2nc1oc2C` [galmic], the “Interaction with non-galanin receptors” value in assay [2] is on record as “interact with a variety of non-galanin receptors”. In assay [3], the “Fold lower affinity for galanin receptors relative to the native peptide” value was 10,000-100,000 fold; the “Fold difference in affinity for GalR1 and GalR2” value is listed as 2-3 fold.
For `CCC1(C)CC(=O)NC1=O` (centres unmarked) [Ethosuximide, ethosuximide], in assay [1] (i.p.), the “ED50, 6 Hz model, 44 mA (95% confidence interval)” value is on record as > 600 mg/kg.
For the molecule `O=C1NC(=O)C(c2ccccc2)(c2ccccc2)N1` [Phenytoin, phenytoin], in assay [1] (i.p., 32 mA), the “ED50, 6 Hz model, 32 mA (95% confidence interval)” value is listed as > 60 mg/kg. Besides, the “ED50, 6 Hz model, 44 mA (95% confidence interval)” value in assay [1] (i.p.) is > 60 mg/kg.
Turning to Ac-YLLGPKK(Lys-P)K [NAX 5055 truncated], in assay [4] (32 mA, tested across time), the “Activity in 6 Hz 32 mA model (in words)” value is “inactive”. In addition, the “Mice protected from seizures / mice tested, 15′” value in assay [4] (6 Hz 32 mA, CF-1 mice, 15 min, groups of four) is on record as 0/4. The “Mice protected from seizures / mice tested, 30′” value in assay [4] (6 Hz 32 mA, CF-1 mice, 30 min, groups of four) is 0/4. For the same molecule, in assay [4] (6 Hz 32 mA, CF-1 mice, 60 min, groups of four), the “Mice protected from seizures / mice tested, 60′” value is listed as 0/4. In assay [4] (6 Hz 32 mA, CF-1 mice, 120 min, groups of four), the “Mice protected from seizures / mice tested, 120′” value is 0/4. Also, in assay [4] (6 Hz 32 mA, CF-1 mice, 240 min, groups of four), the “Mice protected from seizures / mice tested, 240′” value is on record as 0/4.
Turning to `NC(=O)N1c2ccccc2C=Cc2ccccc21` [CBZ, carbamazepine], in assay [5], the “Active dose in corneal kindled mouse model” value was 33 mg/kg.
On to `Nc1nnc(-c2cccc(Cl)c2Cl)c(N)n1` [Lamotrigine, lamotrigine], for which, in assay [1] (i.p., 32 mA), the “ED50, 6 Hz model, 32 mA (95% confidence interval)” value is on record as > 60 mg/kg. Besides, the “ED50, 6 Hz model, 44 mA (95% confidence interval)” value in assay [1] (i.p.) was > 60 mg/kg.
In the case of `Cc1cc(=O)oc2cc(NC(=O)[C@H](CCCCN)NC(=O)[C@H](CC3CCCCC3)NC(=O)OCC3c4ccccc4-c4ccccc43)ccc12` [galnon] (Fmoc-[Cha]-Lys-{AMC}), in assay [2], the “Interaction with non-galanin receptors” value was “interact with a variety of non-galanin receptors”. In addition, in assay [3], the “Fold lower affinity for galanin receptors relative to the native peptide” value is given as 10,000-100,000 fold; the “Fold difference in affinity for GalR1 and GalR2” value was 2-3 fold.
